Here are results for one substance from US20160000750A1, “COMBINATION OF EGCG OR METHYLATED EGCG AND A PDE INHIBITOR” (KYUSHU UNIVERSITY, NATIONAL UNIVERSITY CORPORATION, priority 2010, published 2016).

Experiment [1] concerns acute myeloid leukemia cell line, HL60. Briefly: Apoptosis induction by Annexin V PI double staining, HL60. Format: cell-based, human. The conditions noted are these: vardenafil 5 μM, EGCG 5 μM, 96 hours. On the procedure:
(§1) A propidium iodide (PI) staining solution was prepared by suspending PI (Sigma Corporation) in PBS at a concentration of 50 μg/mL and was used in investigation of the anti-cancer activity of a combination of EGCG and vardenafil by Annexin V PI double staining. The PBS used was prepared by dissolving 8.0 g of NaCl, 0.2 g of KCl, 1.15 g of Na2HPO4, and 0.2 g of KH2PO4 in 1 L of ultrapure water, followed by autoclave sterilization. The Annexin V Binding Buffer used was prepared with 10 mM HEPES, 140 mM NaCl, and 2.5 mM CaCl2 (Wako Pure Chemical Industries, Ltd.) to be pH 7.4, followed by filter sterilization.
(§2) Cell lines, U266 and HL60, adjusted to be 5×10^4 cells/mL (U266) and 1×10^4 cells/mL (HL60), respectively, in an RPMI 1640 medium supplemented with 1% FCS were seeded in a 96-well plate. […]
(§3) The plate was returned to the incubator immediately after the addition of EGCG, followed by culturing for 96 hours. […] The supernatant was removed, and the cells were suspended in an Annexin V Binding uffer, and the number of the cells was counted with a hemocytometer. […] Subsequently, 400 μL of an Annexin V Binding Buffer was added thereto from above, and the cells were counted with a flow cytometer, FACS Caliber (Becton, Dickinson and Company). After compensation, the Annexin V Alexa Fluor 488 Conjugate was measured at FL 1, and the cells deemed to be positive were determined as apoptotic cells. […]

In experiment [2] the test system is human multiple myeloma cell line, U266. Briefly: Apoptosis induction by Annexin V PI double staining, U266. The conditions noted are these: vardenafil 5 μM, EGCG 5 μM, 96 hours. The class given is cell-based. How it is done:
as §1, §2, §3

Experiment [3] relates to mouse plasmacytoma cell line, MPC11, transplanted to Balb/c mice. Briefly: Tumor formation of MPC11 transplanted to Balb/c mice. The class given is in vivo. Conditions: MPC11 s.c., EGCG 15 mg/kg i.p., vardenafil 5 mg/kg i.p., once every two days from day 4. On the procedure: Furthermore, 5-week old female balb/c mice were preliminarily bred for one week and were then inoculated with a mouse multiple myeloma cell line, MPC11, by subcutaneous injection, in the right back, of […] of a suspension of 5×10^7 cells/mL of the cells in an RPMI medium. After 4 days from the inoculation, EGCG (15 mg/kg i.p.) and vardenafil (5 mg/kg i.p.) were administered once every two days, and the tumor volume was measured with varnier clipers. In the graph, EGCG and VDN indicate single administration of EGCG and vardenafil, respectively, and EGCG/Vardenafil indicates combination administration of EGCG and vardenafil.

The mark [4] stands for this setting: anti-67LR antibody MLuc5 20 μg/mL.

With (−)-epigallocatechin-3-O-gallate [EGCG], the “apoptosis-inducing activity (apoptotic cell ratio)” value in experiment [1] (Annexin V PI double staining) and in experiment [2] (Annexin V PI double staining) was “apoptosis was induced” each time. The “apoptosis-inducing activity under treatment with anti-67LR antibody” value in experiment [1] (setting [4]) and in experiment [2] (setting [4]) was “completely cancelled” each time. For the same substance, the “tumor formation (tumor volume)” value in experiment [3] is “any inhibitory action on tumor formation of the mouse plasmacytoma cell line was not observed”.
